Measurements from patent publication US20240376154A1, “BIS-INTERCALATING PEPTIDES, CONJUGATES AND METHODS OF USE” (ZYMEWORKS BC INC., priority 2023, published 2024).

Legend:
[1] = Lipophilicity by experimental HPLC retention time; assay type: physicochemical; details: HPLC retention time as measure of lipophilicity; C18, 10 to 90% CH3CN/H2O with 0.1% FA over 25 min
Experimental: The ability to kill neighboring cells (i.e. bystander effect) is an important property for ADC payloads. For a payload comprising a compound of Formula I to be capable of bystander killing, membrane permeability (or transport) is required and the ability of compounds of Formula I to cross cell membranes and exert a cytotoxic effect was expected to be heavily influenced by lipophilicity.
Compounds were analyzed using an Agilent 1260 HPLC (Agilent Technologies, Inc., Santa Clara, CA) equipped with a Diode array detector and using a Phenomenex Kinetex EVO C18 150×4.6, 2.6 μm column (Phenomenex, Torrance, CA), eluting with 10 to 90% CH3CN/H2O with 0.1% FA over 25 min.

[2] = system: tumour cells (at least 4 of a panel of ovarian, breast, lung, pancreatic, placenta, colon cell lines); assay: In vitro cytotoxicity (cell proliferation, CellTiter-Glo), average over tumour cell line panel; assay type: cell-based; details: average pIC50 on all cell lines tested; 5 nights incubation; CellTiter-Glo
Experimental: The ability of representative compounds of Formula I to inhibit proliferation of tumour cells in vitro was evaluated in at least 4 of the following cell lines: OVCAR-3 (ovarian, ATCC), SKOV-3 (ovarian, ATCC), IGROV-1 (ovarian, national research council of Canada (NRC)), OV-90 (ovarian, ATCC), OVKATE (Ovarian, Japanese Collection of Research Bioresources (JCRB) (JCRB1044)), JIMT-1 (breast, NRC), SK-BR-3 (breast, ATCC), T-47D (breast, ATCC), ZR-75-1 (breast, ATCC), MDA-MB-468 (breast, AddexBio), BT-20 (breast, ATCC), BT-474 (breast, NRC), MDA-MB-175 (breast, AddexBio), A549 (lung, collaborator), NCI-H226 (lung, NRC), NCI-H661 (lung, NRC), NCI-H1573 (lung, ATCC). NCI-H1563 (lung, ATCC), H358 (lung, collaborator), EBC-1 (lung, Xenotech), H1299 (lung, NRC), NCI-H292 (lung, ATCC), HCC817 (lung, ATCC), NCI-H441 (lung, ATCC), MIA-PaCa-2 (pancreatic, ATCC), BxPC-3 (pancreatic, ATCC), Panc-1 (pancreatic, ATCC), AsPC-1 (pancreatic, ATCC), JEG-3 (placenta, AddexBio), HT-29 (colon, ATCC).
Cells were cultured per vendor instructions and in log-phase growth were detached by brief incubation in 0.05% trypsin, then resuspended in respective culturing media at 20,000 cells/mL (except for ZR-75 cells, which were resuspended at 10,000 cells/mL). 50 μL/well (˜1000 cells/well) were transferred to sterile tissue culture (TC)-treated 384-well plates (ThermoFisher Scientific, Catalogue #164610) and incubated overnight at 37° C. with 5% CO2 to allow the cells to adhere to the plate surface. The next day, in a sterile, V-bottom, 96-well plate, test articles were titrated 1:3 in complete growth medium, creating a 10-point dose response titration with compounds at 3.5-times the desired final concentration. 20 μL from each dilution were added to the 384-well plate containing the seeded cells and these plates were incubated at 37° C. with 5% CO2 for 5 nights. Cell viability was quantified by first incubating with 15 μL/well of CellTiter-Glo® (Promega, Catalogue #G7572) for 30 minutes, then measuring luminescence with a microplate luminometer (BioTek® Synergy™ H1 Microplate Reader). IC50 values were determined by GraphPad Prism (GraphPad Software, San Diego, CA).
The results are presented in Table 7.1 and discussed in Example 7. Table 7.1 presents the results as average pIC50 values. pIC50=−log (IC50), thus, for example, pIC50=9 is equivalent to IC50=1 nM, and pIC50=6 is equivalent to IC50=1 μM.

[3] = amide bond; 32-membered ring

For `CN1CC(=O)N(C)[C@@H](C2CCCCC2)C(=O)NC[C@@H](NC(=O)c2nc3ccccc3cc2O)C(=O)N2CCCC[C@H]2C(=O)NCC(=O)N(C)CC(=O)N(C)[C@@H](C2CCCCC2)C(=O)NC[C@@H](NC(=O)c2nc3ccccc3cc2O)C(=O)N2CCCC[C@H]2C(=O)NCC1=O` [Compound 162, N,N′-((7R,11S,19aS,26R,30S,38aS)-11,30-dicyclohexyl-12,15,31,34-tetramethyl-6,10,13,16,19,25,29,32,35,38-decaoxohexatriacontahydro-2H,6H-dipyrido[1,2-a:1′,2′-q][1,4,7,10,13,17,20,23,26,29]decaazacyclodotriacontine-7,26-diyl)bis(3-hydroxyquinoline-2-carboxamide)], the “HPLC” value [1] was 20.7 min and the “pIC50 (average)” value [2] was 9.1.

“Benzyl tert-butyl ((7R,11S,19aS,26R,30S,38aS)-11,15,30,34-tetraisopropyl-12,31-dimethyl-6,10,13,16,19,25,29,32,35,38-decaoxohexatriacontahydro-2H,6H-dipyrido[1,2-a:1′,2′-q][1,4,7,10,13,17,20,23,26,29]decaazacyclodotriacontine-7,26-diyl)dicarbamate” gave a ring closure, isolated yield [3] of 94%.

For `CC(C)[C@H]1C(=O)NC[C@@H](NC(=O)c2nc3ccccc3cc2O)C(=O)N2CCCC[C@H]2C(=O)NCC(=O)N(C)CC(=O)N(C)C2(CC2)C(=O)NC[C@@H](NC(=O)c2nc3ccccc3cc2O)C(=O)N2CCCC[C@H]2C(=O)NCC(=O)N(C)CC(=O)N1C` [Compound 109, N,N′-((7′R,19a'S,26′R,30'S,38a'S)-30′-isopropyl-12′,15′,31′,34′-tetramethyl-6′,10′,13′,16′,19′,25′,29′,32′,35′,38′-decaoxotetratriacontahydro-2′H,6′H,12′H-spiro[cyclopropane-1,11′-dipyrido[1,2-a:1′,2′-q][1,4,7,10,13,17,20,23,26,29]decaazacyclodotriacontine]-7′,26′-diyl)bis(3-hydroxyquinoline-2-carboxamide)], the “HPLC” value [1] was 15.4 min and the “pIC50 (average)” value [2] was 7.77.

For `CC[C@H](C)[C@H]1C(=O)NC[C@@H](NC(=O)c2nc3ccc(Br)cc3cc2O)C(=O)N2CCCC[C@H]2C(=O)NCC(=O)N(C)CC(=O)N(C)[C@@H]([C@@H](C)CC)C(=O)NC[C@@H](NC(=O)c2nc3ccc(Br)cc3cc2O)C(=O)N2CCCC[C@H]2C(=O)NCC(=O)N(C)CC(=O)N1C` [Compound 127, N,N′-((7R,11S,19aS,26R,30S,38aS)-11,30-di((S)-sec-butyl)-12,15,31,34-tetramethyl-6,10,13,16,19,25,29,32,35,38-decaoxohexatriacontahydro-2H,6H-dipyrido[1,2-a:1′,2′-q][1,4,7,10,13,17,20,23,26,29]decaazacyclodotriacontine-7,26-diyl)bis(6-bromo-3-hydroxyquinoline-2-carboxamide)], the “HPLC” value [1] was 21.0 min and the “pIC50 (average)” value [2] was 8.7.

With `CC(C)[C@H]1C(=O)NC[C@@H](NC(=O)c2nc3ccccc3cc2O)C(=O)N2CCCC[C@H]2C(=O)NCC(=O)N(C)CC(=O)N(C)C(C)(C)C(=O)NC[C@@H](NC(=O)c2nc3ccccc3cc2O)C(=O)N2CCCC[C@H]2C(=O)NCC(=O)N(C)CC(=O)N1C` [Compound 115, N,N′-((7R,19aS,26R,30S,38aS)-30-isopropyl-11,11,12,15,31,34-hexamethyl-6,10,13,16,19,25,29,32,35,38-decaoxohexatriacontahydro-2H,6H-dipyrido[1,2-a:1′,2′-q][1,4,7,10,13,17,20,23,26,29]decaazacyclodotriacontine-7,26-diyl)bis(3-hydroxyquinoline-2-carboxamide)] the “HPLC” value [1] was 15.8 min and the “pIC50 (average)” value [2] was “Inactive”.

For `CC(C)[C@H]1C(=O)NC[C@@H](NC(=O)c2nc3ccccc3cc2O)C(=O)N2CCCC[C@H]2C(=O)NCC(=O)N(C)CC(=O)N(C)[C@@H](c2ccccc2)C(=O)NC[C@@H](NC(=O)c2nc3ccccc3cc2O)C(=O)N2CCCC[C@H]2C(=O)NCC(=O)N(C)CC(=O)N1C` [Compound 103, N,N′-((7R,11S,19aS,26R,30S,38aS)-11-isopropyl-12,15,31,34-tetramethyl-6,10,13,16,19,25,29,32,35,38-decaoxo-30-phenylhexatriacontahydro-2H,6H-dipyrido[1,2-a:1′,2′-q][1,4,7,10,13,17,20,23,26,29]decaazacyclodotriacontine-7,26-diyl)bis(3-hydroxyquinoline-2-carboxamide)], the “HPLC” value [1] was 17.2 min and the “pIC50 (average)” value [2] was 7.3.

With `CC[C@H](C)[C@H]1COC[C@@H](NC(=O)c2nc3ccccc3cc2O)C(=O)N2CCCC[C@H]2C(=O)NCC(=O)N(C)CC(=O)N(C)[C@@H](C(C)C)C(=O)NC[C@@H](NC(=O)c2nc3ccccc3cc2O)C(=O)N2CCCC[C@H]2C(=O)NCC(=O)N(C)CC(=O)N1C` [Compound 197, N,N′-((7R,11S,19aS,26R,30S,38aS)-11-((S)-sec-butyl)-30-isopropyl-12,15,31,34-tetramethyl-6,13,16,19,25,29,32,35,38-nonaoxotetratriacontahydro-2H,6H,10H-dipyrido[2,1-b1: 2′,1′-l][1]oxa[4,7,10,13,17,20,23,26,29]nonaazacyclodotriacontine-7,26-diyl)bis(3-hydroxyquinoline-2-carboxamide)] the “HPLC” value [1] was 19.4 min and the “pIC50 (average)” value [2] was 9.4.

For `CC(C)[C@H]1C(=O)NC[C@@H](NC(=O)c2nc3ccccc3cc2O)C(=O)N2CCCC[C@H]2C(=O)NCC(=O)N(C)CC(=O)N(C)C2(CCC2)C(=O)NC[C@@H](NC(=O)c2nc3ccccc3cc2O)C(=O)N2CCCC[C@H]2C(=O)NCC(=O)N(C)CC(=O)N1C` [Compound 121, N,N′-((7′R,19a'S,26′R,30'S,38a'S)-30′-isopropyl-12′,15′,31′,34′-tetramethyl-6′,10′,13′,16′,19′,25′,29′,32′,35′,38′-decaoxotetratriacontahydro-2′H,6′H,12′H-spiro[cyclobutane-1,11′-dipyrido[1,2-a:1′,2′-q][1,4,7,10,13,17,20,23,26,29]decaazacyclodotriacontine]-7′,26′-diyl)bis(3-hydroxyquinoline-2-carboxamide)], the “HPLC” value [1] was 17.0 min and the “pIC50 (average)” value [2] was 8.18.

With `CN1CC(=O)N2CCCCC[C@H]2C(=O)NC[C@@H](NC(=O)c2nc3ccccc3cc2O)C(=O)N2CCCC[C@H]2C(=O)NCC(=O)N(C)CC(=O)N2CCCCC[C@H]2C(=O)NC[C@@H](NC(=O)c2nc3ccccc3cc2O)C(=O)N2CCCC[C@H]2C(=O)NCC1=O` [Compound 157, N,N′-((7R,10aS,23aS,30R,33aS,46aS)-19,42-dimethyl-6,10,17,20,23,29,33,40,43,46-decaoxotetratetracontahydro-6H,29H-bis(azepino) [1,2-j:1′,2′-z]dipyrido[1,2-a:1′,2′-q][1,4,7,10,13,17,20,23,26,29]decaazacyclodotriacontine-7,30-diyl)bis(3-hydroxyquinoline-2-carboxamide)] the “HPLC” value [1] was 15.8 min and the “pIC50 (average)” value [2] was 7.1.

With `CCN1C(=O)CN(C)C(=O)CNC(=O)[C@@H]2CCCCN2C(=O)[C@H](NC(=O)c2nc3ccccc3cc2O)CNC(=O)[C@H](C(C)C)N(CC)C(=O)CN(C)C(=O)CNC(=O)[C@@H]2CCCCN2C(=O)[C@H](NC(=O)c2nc3ccccc3cc2O)CNC(=O)[C@@H]1C(C)C` [Compound 147, N,N′-((7R,11S,19aS,26R,30S,38aS)-12,31-diethyl-11,30-diisopropyl-15,34-dimethyl-6,10,13,16,19,25,29,32,35,38-decaoxohexatriacontahydro-2H,6H-dipyrido[1,2-a:1′,2′-q][1,4,7,10,13,17,20,23,26,29]decaazacyclodotriacontine-7,26-diyl)bis(3-hydroxyquinoline-2-carboxamide)] the “HPLC” value [1] was 17.9 min and the “pIC50 (average)” value [2] was 8.5.
